Laboratory results: patent publication US9186318B2, “Quinolyl-containing hydroxamic acid compound and preparation method thereof, and pharmaceutical composition containing this compound and use thereof” (Beijing Konruns Pharmaceutical Co., Ltd, priority 2011, dated 2015)

Experiments:
[1] = system: GTL-16 gastric cancer cells; assay: Anti-tumor experiment in xenograft nude mice; type: in vivo, BALB/c-nu/nu mice; conditions: GTL-16 xenograft nude mice, 75 mg/kg oral gavage once a day; for Tumor Growth Inhibition (TGI): 14 days; for average tumor volume: after 14 days, mean±SD, n=6
Description: In this example, N1′-[3-fluoro-4-[[7-[[1-[2-(hydroxyamino)-2-oxoethyl]-4-piperidyl]methoxy]-6-methoxy-4-quinolyl]oxy]phenyl]-N1-(4-fluorophenyl)cyclopropane-1,1-dicarboxamide prepared in Example 1 was used to conduct anti-tumor experiment in xenograft nude mice animal models of human gastric cancer. The method and results of the experiment were as follows.
4 to 5-week-old SPF level female BALB/c-nu/nu mice with body weight of 12 g to 16 g were purchased from Beijing Vital River Laboratory Animal Technology Co., Ltd., with the production license number: SCXK (Beijing) 2006. GTL-16 gastric cancer cells were purchased from Shanghai Institutes for Biological Sciences Cell Resource Center. RPM 1-1640 cell culture media, fetal bovine serum (FBS) and trypsin digestion solution were purchased from Gibco. Various antibiotics were purchased from Sigma.
(§1) GTL-16 gastric cancer cells were firstly cultured: GTL-16 cell lines were inoculated in RPM 1-1640 culture medium contain 10% FBS, 100 U/ml penicillin, 100 U/ml streptomycin and cultured under the condition of 37° C., 5% CO2 and 100% humidity in a carbon dioxide incubator. The logarithmic growth phase reached upon 24 h, and the cells completely covered the bottom of the culture flask at approximately 48 h after inoculation. Those with 80% of GTL-16 cells covering the bottom of the culture flask were digested and centrifuged at 1000 r/min for 5 min. The cells were diluted to 2×10^7/ml, and implanted subcutaneously in the right anterior axillary of the nude mice at 0.1 mL per mouse. Starting from 12 days after inoculation of tumor cells, the weight of the tumor-bearing nude mice and the size of tumors were measured, and the mice with tumor sizes ranging from 150-200 mm^3 were randomly divided into vehicle control group (Vehicle was 0.25% methanesulfonic acid) and treatment group in which the mice were treated with N1′-[3-fluoro-4-[[7-[[1-[2-(hydroxyamino)-2-oxoethyl]-4-piperidyl]methoxy]-6-methoxy-4-quinolyl]oxy]phenyl]-N1-(4-fluorophenyl)cyclopropane-1,1-dicarboxamide prepared in Example 1 with 6 mice each group. Thereafter, the nude mice were weighed daily and the oral administrations were performed at 0.1 mL/10 g body-weight through oral gavage method (75 mg/kg, once a day). The tumor size of each animal was measured every 2 days. 14 days later, the tumor-bearing mice were sacrificed by cervical dislocation and the tumors were removed and weighed. The calculation method of Tumor Growth Inhibition (TGI) was as follows: the experimental data were represented by mean±SD; TGI=[(Vvehicle group−Vtreatment group)÷Vvehicle group]×100%, wherein Vvehicle group represented the mice tumor volume of the vehicle group and Vtreatment group represented the mice tumor volume of the treatment group. […]

[2] = Body weight of mice in the anti-tumor experiment; type: in vivo, BALB/c-nu/nu mice; conditions: treatment group, 75 mg/kg oral once a day; after 14 days treatment
Method: as §1, with “Thereafter, the nude mice were weighed daily and the oral administrations were performed at 0.1 mL/10 g body-weight through oral gavage method (75 mg/kg, once a day).” left out, “days.” for “days. 14 days later, the tumor-bearing mice were sacrificed by cervical dislocation and the tumors were removed and weighed. The calculation method of Tumor Growth Inhibition (TGI) was as follows: the experimental data were represented by mean±SD; TGI=[(Vvehicle group−Vtreatment group)÷Vvehicle group]×100%, wherein Vvehicle group represented the mice tumor volume of the vehicle group and Vtreatment group represented the mice tumor volume of the treatment group.”

SMILES	Tumor Growth Inhibition (TGI) [1] [%]	average tumor volume [1] [mm^3]	weight variation of mice [2] [%]
COc1cc2c(Oc3ccc(NC(=O)C4(C(=O)Nc5ccc(F)cc5)CC4)cc3F)ccnc2cc1OCC1CCN(CC(=O)NO)CC1 [Example 1, N1′-[3-fluoro-4-[[7-[[1-[2-(hydroxyamino)-2-oxoethyl]-4-piperidyl]methoxy]-6-methoxy-4-quinolyl]oxy]phenyl]-N1-(4-fluorophenyl)cyclopropane-1,1-dicarboxamide]	65	630.9±354.6	< 10
COc1cc2c(Oc3ccc(NC(=O)C4(C(=O)Nc5ccc(F)cc5)CC4)cc3F)ccnc2cc1OCCCC(=O)NO [Example 9, N1′-[3-fluoro-4-[[7-[4-(hydroxyamino)-4-oxobutoxy]-6-methoxy-4-quinolyl]oxy]phenyl]-N1-(4-fluorophenyl)cyclopropane-1,1-dicarboxamide]	87	241.1±131.4	
